Key:
[1] = test system: Male C57BL/6 mice; test: Oral glucose tolerance test in C57BL/6 mice; type: in vivo; details: 3 mpk and 10 mpk oral
Description: (§1) Male C57BL/6 mice (8-10 weeks) were grouped based on basal glucose levels and animals were fasted for 16 hours. Glucose level of each animal was estimated in blood collected from tail vein before animals were dosed orally with 0.5% Tween 80 and 0.5% NaCMC (vehicle control) and compounds at 3 and 10 mpk (n=5). After 30 minutes of compound dosing, blood glucose was again estimated and 2 g/kg/10 ml (20%) of Glucose solution was administered orally to all the animals. Blood glucose was estimated at 15, 30, 60, 90 and 120 minutes time points after glucose administration. Accu-Check active blood glucose meter was utilised for estimation of blood from tail vein.
Glucose reduction observed in animals treated with compounds of present invention is represented in terms of % AUC reduction. A greater glucose reduction in oral glucose tolerance test indicates the compound's efficacy in this rodent species.

[2] = test system: Male SD rats; test: Oral glucose tolerance test in Sprague-Dawley rats; type: in vivo; details: 3 mpk and 10 mpk oral
Description: as §1, with “SD rats” for “C57BL/6 mice”
Glucose reduction observed in animals treated with GPR119 agonists is represented in terms of % AUC reduction. A greater glucose reduction in oral glucose tolerance test indicates the compound's efficacy in this rodent species.

[3] = molecular target: T1, hGPR119 (Homo sapiens, UniProt Q8TDV5); test: In vitro cyclic AMP assay (Cisbio HTRF) in CHO-hGPR119 cells; type: cell-based; details: cAMP; for activation at 1 µM: 1 h, 60 min, read-out: Induction (% induction at 1 μM); for EC50: class symbols, legend not given
T1 construct: expressed in transfected cells; host or cells: CHO cells (CHO-hGPR119)
T1 sequence (Q8TDV5 1-335): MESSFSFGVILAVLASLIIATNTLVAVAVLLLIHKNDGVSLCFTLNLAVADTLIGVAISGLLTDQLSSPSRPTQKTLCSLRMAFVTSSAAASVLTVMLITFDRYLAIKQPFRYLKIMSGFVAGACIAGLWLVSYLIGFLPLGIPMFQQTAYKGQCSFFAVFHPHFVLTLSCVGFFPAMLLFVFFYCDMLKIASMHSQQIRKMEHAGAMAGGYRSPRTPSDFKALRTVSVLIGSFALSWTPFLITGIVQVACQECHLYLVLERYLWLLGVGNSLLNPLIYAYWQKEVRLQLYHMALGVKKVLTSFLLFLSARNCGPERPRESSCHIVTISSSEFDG
In short: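 Cells plated at 5000/well and exposed to test compound dose series for 60 min at room temperature with 1 mM IBMX and 0.5% DMSO (final). Lysis with anti-cAMP antibody/d2-cAMP detection reagents, 1 h at room temperature; HTRF read at 665/620 nm (337 nm excitation); EC50 from concentration-response.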

SMILES | glucose reduction (% AUC reduction) in oral glucose tolerance test [1] | glucose reduction (% AUC reduction) in oral glucose tolerance test [2] | activation at 1 µM [3] [%] | EC50 [3]
CC(C)c1noc(N2CCC([C@@H](C)Oc3nn4cc(-c5cnc(Cl)cn5)nc4s3)CC2)n1 [Compound 1087, 2-((R)-1-(1-(3-isopropyl-1,2,4-oxadiazol-5-yl)piperidin-4-yl)ethoxy)-6-(5-chloropyrazin-2-yl)imidazo[2,1-b][1,3,4]thiadiazole] | significant dose dependent glucose reduction | significant dose dependent glucose reduction | 75 | –
CC(C)c1noc(N2CCC([C@@H](C)Oc3nn4cc(-c5ccncc5)nc4s3)CC2)n1 [Compound 1059, (R)-3-isopropyl-5-(4-(1-((6-(pyridin-4-yl)imidazo[2,1-b][1,3,4]thiadiazol-2-yl)oxy)ethyl)piperidin-1-yl)-1,2,4-oxadiazole] | significant dose dependent glucose reduction | significant dose dependent glucose reduction | 68 | A++
CC(C)OC(=O)N1CCC([C@H](C)Oc2nn3cc(-c4ccc(S(C)(=O)=O)cc4F)nc3s2)CC1 [Compound 1108, isopropyl 4-((S)-1-(6-(2-fluoro-4-(methylsulfonyl)phenyl)imidazo[2,1-b][1,3,4]thiadiazol-2-yloxy)ethyl)piperidine-1-carboxylate] | significant dose dependent glucose reduction | significant dose dependent glucose reduction | 70 | A++

Reference: patent publication US10208030B2, “GPR119 agonist compounds” (Mankind Pharma Ltd., priority 2016, dated 2019)
